In patent US20120165559A1, “Compounds Having a Physiological Effect” (priority 2009, published 2012):
Where two headings read alike, the source gives them in different places.

Columns and labels:
[1] = test system: skin and the mucous membranes, particularly of the mouth, of the nasal fossa and of the throat; assay: Organoleptic and physiological qualities of the compounds, noted by the inventors and flavor experts; type: in vivo; details: for Organoleptic qualities: Tables I-V
Excerpt: The invention is based on the following observation, made by the inventors and backed up by flavor experts, that the physiological effects of N-ethyl-2-(2-isopropyl-5-methylcyclohexyl)acetamide: As mentioned above, the compounds of general formula (I) according to the invention have particular physiological effects. They cause a cool and/or warm sensation on the skin and the mucous membranes, particularly of the mouth, of the nasal fossa and of the throat. Some of these amides cause a more or less intense refreshing physiological effect giving the foods to which they are added a sensation of freshness, whereas others cause a warming physiological effect. Some of them can also cause other physiological effects, such as tingling or a piquant-burning physiological effect characteristic of substances that activate the trigeminal nerve, therefore giving the foods to which they are added a spicy sensation.

panelists [2] = assay: Mint flavoring evaluated in fondant; type: in vivo; details: in a mint flavoring, dosage of 50 ppm
Method: The molecule was tested in a mint flavoring and evaluated in fondant at a dosage of 50 ppm.

panelists [3] = assay: Citrus fruit flavoring in fatty filling; type: in vivo; details: 10% in a citrus fruit flavoring, flavoring at 0.3% in fatty filling
Method: The molecule was tested at 10% in a citrus fruit flavoring, the flavoring obtained was at a dose of 0.3% in fatty filling.

[4] = test system: panelists / flavor experts; assay: Evaluation in mineral water; type: in vivo
Method: The molecule was evaluated in mineral water at a dosage of 30 ppm. […] The evaluation of the organoleptic properties of compound 10 was carried out in mineral water at a concentration of 1 ppm.

panel of flavor experts = assay: Comparative evaluation of enantiomers 1′ and 1″ and the racemic mixture by a panel of flavor experts; type: in vivo; details: enantiomers taken separately versus each other and versus the racemic mixture
Excerpt: The enantiopure compounds 1′ and 1″ obtained in examples 21 and 22 and also the racemic mixture of compound 1 obtained in example 2 were subjected to a panel of flavor experts for a comparative evaluation of the organoleptic and physiological qualities.

panel of tasters = assay: Flavorings for oro-dental hygiene (mouthwashes, toothpaste); type: in vivo; details: alcoholic mouthwash, nonalcoholic mouthwash and toothpaste
Method: Compound 10 was tested in various applications: in an alcoholic mouthwash and a nonalcoholic mouthwash and in toothpaste. […] This molecule is very advantageous since it provides a tingling sensation on the edge of the tongue, which is piquant like a capsicum, and salivating. [table] Dosage of flavoring 0.2% Dosage of flavoring 0.2% Dosage of flavoring 1%

panelists [5] = assay: Curry/capsicum flavoring evaluated in crackers; type: in vivo; details: flavoring in crackers at 5% (final dosage 500 ppm)
Excerpt: Compound 10 was subsequently tested in a curry/capsicum flavoring and evaluated in crackers at 5% (final dosage: 500 ppm). [table]

[6] = test system: skin and the mucous membranes, particularly of the mouth, of the nasal fossa and of the throat; details: known from WO 2007/089252; cited from earlier work

SMILES	Organoleptic qualities [1]	also measured
CNC(=O)CC1CC(C)CCC1C(C)C (racemic) [Compound 1, N-methyl-2-(2-isopropyl-5-methylcyclohexyl)acetamide]		effectiveness as refreshing agent, in terms of intensity and of perception threshold ([1]; comparative study among the refreshing agents 1, 19, 15, 17, 18, 8, 9): the most effective; sensation perceived (panelists [2]): intense freshness which lasts for a few minutes; sensation perceived (panelists [3]): persistent freshness, and a change in the lemon profile; aromatic note of the drink ([4]; dosage of 30 ppm): minty, pine, liquoricy, warming, piquant, salivating; sensation felt ([4]; dosage of 30 ppm): freshness which came very rapidly after swallowing
C=C(C)[C@H]1CC[C@H](C)C[C@H]1CC(=O)NC [Compound 1′, N-methylamide of (1′S,2′S,5′S)-2-[(2′-isopropenyl-5′-methyl)cyclohex-1-yl]acetic acid]		difference in perception threshold and intensity of the refreshing effect felt (panel of flavor experts): did not make it possible to demonstrate any notable difference
C=C(C)[C@@H]1CC[C@@H](C)C[C@@H]1CC(=O)NC [Compound 1″, N-methylamide of (1′R,2′R,5′R)-2-[(2′-isopropenyl-5′-methyl)cyclohex-1-yl]acetic acid]		difference in perception threshold and intensity of the refreshing effect felt (panel of flavor experts): did not make it possible to demonstrate any notable difference
CC(C)CNC(=O)CC1CC(C)CCC1C(C)C (stereo not shown) [Compound 2, N-isobutyl-2-(2-isopropyl-5-methylcyclohexyl)acetamide]	Refreshing and tingling	
CC1CCC(C(C)C)C(CC(=O)NCC(=O)O)C1 (stereo not shown) [Compound 3, [2-(2-isopropyl-5-methylcyclohexyl)acetylamino]acetatic acid]	Warm	
CC(=O)OCCNC(=O)CC1CC(C)CCC1C(C)C (stereo not shown) [Compound 5, [2-(2-isopropyl-5-methylcyclohexyl)acetylamino]ethyl acetate]	Persistent mentholated	
CC1CCC(C(C)C)C(CC(=O)NCCO)C1 (stereo not shown) [Compound 6, N-(2-hydroxyethyl)-2-(2-isopropyl-5-methylcyclohexyl)acetamide]	Refreshing and tingling,	
CC1CCC(C(C)C)C(CC(=O)NCC(C)(C)O)C1 (stereo not shown) [Compound 7, N-(2-hydroxy-2-methylpropyl)-2-(2-isopropyl-5-methylcyclohexyl)acetamide]	Woody, piquant, and cold,	
CNC(=O)C(C)C1CC(C)CCC1C(C)C (stereo not shown) [Compound 8, 2-(2-isopropyl-5-methylcyclohexyl)-N-methylpropionamide]	Piquant, slight	
CNC(=O)CC(C)C1CC(C)CCC1C(C)C (stereo not shown) [Compound 9, 3-(2-isopropyl-5-methylcyclohexyl)-N-methylbutyramide]	Cool	
COc1cc(CNC(=O)CC2CC(C)CCC2C(C)C)ccc1O (stereo not shown) [Compound 10, N-(4-hydroxy-3-methoxybenzyl)-2-(2-isopropyl-5-methylcyclohexyl)acetamide]	Warm and piquant like pepper, with a salivating effect	physiological effect [1]: strong piquant-burning physiological effect; sensation felt (panel of tasters): piquant and warming sensation; sensation felt ([4]; concentration of 1 ppm): burning and salivation sensation which comes immediately after depositing on the tongue; duration of sensation (panelists [5]): more longlasting sensation
COC(=O)c1ccccc1NC(=O)CC1CC(C)CCC1C(C)C (stereo not shown) [Compound 11, N-(2-methyloxycarbonylphenyl)-2-(2-isopropyl-5-methylcyclohexyl)acetamide]	Warm	physiological effect [1]: notable warming physiological effect, devoid of the piquant-burning aspect
CC1CCC(C(C)C)C(CC(=O)Nc2ccc(C#N)cc2)C1 (stereo not shown) [Compound 12, N-(4-cyanophenyl)-2-(2-isopropyl-5-methylcyclohexyl)acetamide]	Warm	
CC1CCC(C(C)C)C(CC(=O)Nc2ccc(CC#N)cc2)C1 (stereo not shown) [Compound 13, N-(4-cyanomethylphenyl)-2-(2-isopropyl-5-methylcyclohexyl)acetamide]	Warm	
CC1CCC(C(C)C)C(CC(=O)NCc2ccc3c(c2)OCO3)C1 (stereo not shown) [Compound 14, N-benzo[1,3]dioxol-5-ylmethyl-2-(2-isopropyl-5-methylcyclohexyl)acetamide]	Warm and cold at the back of the throat, with a vanilla note	
C=C(C)C1CCC(C)CC1CC(=O)NC (stereo not shown) [Compound 15, 2-(2-isopropenyl-5-methylcyclohexyl)-N-methylacetamide]	Refreshing	
C=C(C)C1CCC(C)CC1CC(=O)NCc1ccc(O)c(OC)c1 (stereo not shown) [Compound 16, N-(4-hydroxy-3-methoxybenzyl)-2-(2-isopropenyl-5-methylcyclohexyl)acetamide]	Powerful piquant with delayed effect, salivating, slightly woody	
CNC(=O)CC1=C(C(C)C)CCC(C)C1 (stereo not shown) [Compound 17, 2-(2-isopropyl-5-methylcyclohex-1-enyl)-N-methylacetamide]	Refreshing	melting point: 82 °C
CNC(=O)C=C1CC(C)CCC1C(C)C (stereo not shown) [Compound 18, 2-(2-isopropyl-5-methylcyclohexylidene)-N-methylacetamide]	Refreshing	
CNC(=O)CC1C=C(C)CCC1C(C)C (stereo not shown) [Compound 19, 2-(6-isopropyl-3-methylcyclohex-2-enyl)-N-methylacetamide]	Refreshing with a delayed	
CCNC(=O)CC1CC(C)CCC1C(C)C (stereo not shown) [N-ethyl-2-(2-isopropyl-5-methylcyclohexyl)acetamide]		physiological effect [6]: refreshing agent
